How the values were obtained:
[1] = system: TP53 WT colon cancer cell line Ls174T; assay: CellTiter-Glo growth inhibition, Ls174T; assay type: cell-based; settings: 72-hour exposure, FIG. 1
Experimental: (§1) Two examples of additional comparisons are provided below for colon cancer cell lines (TP53 WT colon cancer cell line Ls174T and TP53 WT colon cancer cell line LoVo).
(§2) In these assays, two 96 well plates of each cell line were seeded with 5,000 cells per well in a total volume of […] per well and left incubating overnight. The following day, the cells were exposed to different concentrations of NUC013. At the end of a 72-hour exposure period, the plates were removed for CellTiter-Glo® assay. Luminescence was recorded on a Synergy 4.0.

[2] = system: TP53 WT colon cancer cell line LoVo; assay: CellTiter-Glo growth inhibition, LoVo; assay type: cell-based; settings: 72-hour exposure, FIG. 2
Experimental: as §1, §2

[3] = system: HeLa cells; assay: Nucleotide concentrations in HeLa cell extracts by HPLC (RNR inhibition); assay type: cell-based; settings: 50 μM, 16 h incubation
Description: The more common approach is to synthesize a nucleoside diphosphate and then determine whether it inhibits RNR or p53R2. […] Nucleic Acids Research. […] The other approach is to expose cells in tissue culture to the drug and then attempt to determine whether deoxynucleotide synthesis is inhibited when compared to control cells. Measurement of deoxynucleotides may be done by radioimmunoassay or by HPLC. The disadvantage of a radioimmunoassay is that it can only measure a single deoxynucleotide triphosphate (dNTP) at a time and typically requires a tritiated nucleotide, but it is the preferred method for measuring dCTP [Piall E M, Aherne G W, Marks V. The quantitative determination of 2′-deoxycytidine-5′ triphosphate in cell extracts by radioimmunoassay. Anal Biochem. 1986; 154(1):276-281 incorporated herein by reference in its entirety]. On the other hand, HPLC can measure multiple nucleotides without requiring radiolabeling, but has been noted to quantitate poorly dC nucleotides, possibly as an artifact of an influx of dCTP from the medium [Bianchi V, Pontis E, Reichard P. Changes of deoxyribonucleoside triphosphate pools induced by hydroxyurea and their relation to DNA synthesis. J Biol Chem. 1986; 261(34): 16037-16042 incorporated herein by reference in its entirety]. This approach was used to determine RNR inhibition by NUC013.
Briefly, HeLa cells ([…]) were grown in the presence or absence of drug, in this case gemcitabine or NUC013. At the end of a 16 h incubation, the medium was aspirated, cells monolayers washed twice with PBS, and used for nucleotide extraction. The nucleotides were extracted from cell monolayers by the addition of ice-cold 80% acetonitrile (ACN) for 1 h. The extracts were centrifuged to remove cellular debris and loaded on a SAX column (100 mg, Supelco) pre-conditioned with methanol, water and ACN. Once the sample was completely effused, the cartridge was washed with 3 ml 80% ACN and 3 ml water and eluted with 1M KCl. The eluent was filtered through a 0.45 μm filter membrane (Roth) and analyzed by HPLC. Peak identification of the different nucleoside mono-, di-, and triphosphates, was made from their characteristic UV absorption spectra and retention times compared with those of a mixture of standards run immediately before cell extracts. The area of individual peaks was measured using ChemStation software (Agilent).

[4] = system: HL-60 (leukemia, TP null); settings: HL-60 nude mice
[5] = in vivo
[6] = system: LoVo (colon cancer, TP WT); assay: Xenograft model, nude mice implanted with LoVo; settings: NUC041 treatment, 8 days following the end of treatment
[7] = Pharmacokinetics after SC administration of NUC041 in phospholipid gel depot to mice; settings: analyte in plasma following SC administration of NUC041 (100 mg/kg) to mice

Compound: 4-amino-1-((2R,4R,5R)-3,3-difluoro-4- hydroxy-5- (hydroxymethyl)tetrahydrofuran-2- yl)pyrimidin-2(1I)-one hydrochloride [Gemcitabine, reference compound]
- GI50 [1]: > 50 µM
- GI50 [2]: > 50 µM
- ADP [3]: 15,639
- ATP [3]: 26,296
- CTP [3]: 1,297
- GTP [3]: 2,036
- UTP [3]: 4,801
- dATP, peak area, AU [3]: 0 AU
- dGDP, peak area, AU [3]: 7.95 AU
- dTDP, peak area, AU [3]: 43.4 AU
- dUTP, peak area, AU [3]: 5.3 AU

Compound: Nc1ncn([C@H]2C[C@H](O)[C@@H](CO)O2)c(=O)n1 [Decitabine, 4-amino-1-((2R,4S,5R)-4-hydroxy-5-(hydroxymethyl)tetrahydrofuran-2-yl)-1,3,5-triazin-2(1I)-one]
- mice dead or moribund prior to the conclusion of the study ([4]; 5 mg/kg per day for three consecutive days a week for three weeks): Four of ten

Compound: C[Si](C)(C)OC[C@H]1O[C@@H](n2cnc(N)nc2=O)C(F)(F)[C@@H]1O[Si](C)(C)C [NUC041, 4-amino-1-((2R,4R,5R)-3,3-difluoro-4-(trimethylsilyloxy)-5-((trimethylsilyloxy)methyl)tetrahydrofuran-2-yl)-1,3,5-triazin-2(1H)-one]
- hazard ratio (HR) vs saline control ([4]; 31 mg/kg intravenously, oil in water emulsion): 0.51
- pharmacokinetic advantage over NUC013 [5]: did not demonstrate a pharmacokinetic advantage over NUC013
- tumor weights less than saline controls [6]: 26.6%
- AUClast (area under the plasma concentration versus time curve from 0 to last quantifiable sampling time) [7]: 20.0 ng·h/mL

Reference: US20190054103A1, “METHOD OF TREATMENT OF TP53 WILD-TYPE TUMORS WITH 2',2'-DIFLUORO-5-AZA-2'-DEOXYCYTIDINE OR PRODRUGS THEREOF” (priority 2016, published 2019)
